Test results reported in publication PMC5543288, “Psychostimulant Effect of the Synthetic Cannabinoid JWH-018 and AKB48: Behavioral, Neurochemical, and Dopamine Transporter Scan Imaging Studies in Mice” (Frontiers in Psychiatry, 2017).
Structures can show the parent of a compound that is named as a salt. Where two headings read alike, the source gives them in different places.

Experiments:
mouse DAT = molecular target: T1, mouse DAT (Mus musculus, UniProt Q61327); assay: [3H]-WIN 35,428 competition binding, mouse striatal synaptosomes
T1 construct: DAT expressed in mouse striatal nerve terminals; from tissue; host or cells: mouse striatum, crude synaptosomal (P2) fraction
Procedure: Competition binding experiments were carried out incubating 8 nM [^3H]-WIN 35,428 (specific activity 84 Ci/mmol; Perkin Elmer, Boston, MA, USA) with CHO membranes transfected with human DAT (Perkin Elmer) or mouse striatal synaptosomes with different concentration of the examined compounds for 120 min at 4°C. Non-specific binding was determined in the presence of 1 µM GBR 12783. At the end of the incubation time, bound and free radioactivity were separated by filtering the assay mixture through Whatman GF/B glass fiber filters in a Brandel cell harvester (Brandel, Unterföhring, Germany). Filter bound radioactivity was counted in a Perkin Elmer 2810TR scintillation counter (Perkin Elmer).
(§1) On the day of the experiment, the animal was euthanized, the brain was rapidly removed, and both striata isolated. Thereafter, a crude synaptosomal (P2) fraction was prepared as follows: the striata were suspended in ice-cold buffered sucrose solution (0.32 M, pH 7.4) and homogenized. The homogenate was centrifuged (10 min, 2,100 g, 4°C) to remove nuclei and debris. The supernatant was further centrifuged at 13,500 g for 20 min at 4°C. For [^3H]-WIN 35,428 binding experiments, the P2 pellet was resuspended in 50 mM Tris–HCl, 100 mM NaCl, pH 7.4. For [^3H]-DA release experiments, the P2 pellet was then resuspended in 5 ml of Kreb’s solution (mM: NaCl 118; KCl 4.4; CaCl2 1.2; MgSO4 1.2; KH2PO4 1.2; NaHCO3 25; glucose 10), gassed 20 min with a mixture of 95% O2 plus 5% CO2 containing [^3H]-DA (50 nM; Perkin Elmer, Monza, Italy), disodium EDTA (0.03 mM), and ascorbic acid (0.05 mM; to prevent [^3H]-DA degradation).

[1] = molecular target: T2, dopamine transporter (DAT) in the mouse striatum (Mus musculus, UniProt Q61327); assay: In vivo DaTSCAN SPECT-CT imaging, striatal [123I]-FP-CIT binding; conditions: i.p. 30 min before tracer: cocaine 20 mg/kg, amphetamine 10 mg/kg, JWH-018 1 mg/kg, AKB48 1 mg/kg
T2 construct: from tissue; host or cells: striatum of living CD-1 male mice (in vivo imaging)
Procedure: 18 CD-1 male mice were divided into six different groups (three mice per treatment). […] A control group (i.e., naïve untreated mice) was also included in the study. Thirty minutes after drug administration, all mice were submitted to an intravenous injection with a solution of [^123I]-DaTSCAN (15–20 MBq, ≤200 µl). The body temperature of the animals was maintained at 37°C during the imaging sessions and under the cage, between imaging sessions, using a heating lamp. The SPECT–CT whole-body images were acquired at 1 h and 30 min after [^123I]-FP-CIT injection, with the initial tomographic acquisition starting nearly 15 min after the injection. Each SPECT-CT whole-body acquisition consisted of one bed positions (36 mm), 60 min, 128 views over 360 ([35]). The used energy window is 119–219 keV and the images were reconstructed by using the iterative EM-ML algorithm, including the collimator response. CT images have been acquired, using the digital X-ray imaging system integrated into the YAP(S)PET scanner ([36]). Acquisition parameters for X-ray projections were X-ray tube voltage = 35 keV, anode current = 1 mA, exposure = 1 s, 64 views over 360, and magnification factor = 1.2. Subtraction of dark noise contribution and flat field corrections was accomplished to obtain final images. The CT data were reconstructed by using the FDK algorithm. Amide software ([37]) has been used for images’ registration, visualization and analysis. The size of the ROIs was voxels (100 mm^3 volume), corresponding to entire striatum. These ROIs were used as a template. To avoid the variability of the slice selection and to gain statistical power, the entire striatum volume for the analysis was used. The template was positioned manually (without changing the size and form of the ROIs) on the SPECT images with the backing of anatomical information from LONI MAP 2003 MRI mouse atlas ([38], [39]). For analysis of striatal [^123I]-FP-CIT binding, two consecutive horizontal slices (total thickness approximately 4 mm) with the highest striatal binding were selected. The landmarks for positioning were the intra-orbital glands, striatum, and the borders of the brain. Striatal binding ratios are expressed as average activity per unit volume [Bq/mm^3], each value has been calculated as the ratio between the activity inside the ROI and the ROI volume, normalized for injected activity and for mouse brain weight.

male CD-1 mice = assay: Spontaneous locomotor activity (ANY-maze video tracking); type: in vivo, mouse; conditions: for immobility time / total distance traveled (spontaneous locomotion) / time in the central zone versus peripheral area of the cage / duration of the increase of spontaneous locomotion: acute i.p.: JWH-018 0.3 mg/kg; for immobility time: AKB48 1 mg/kg (30 min after administration); for immobility time / total distance traveled (spontaneous locomotion): amphetamine 10 mg/kg; for immobility time / total distance traveled (spontaneous locomotion) / time spent in the peripheral arena / duration of the increase of spontaneous locomotion: cocaine 20 mg/kg; for total distance traveled (spontaneous locomotion) / facilitation of spontaneous locomotion after pretreatment with AM 251 / facilitation of spontaneous locomotion after coadministration of SCH23390 and haloperidol / time in the central zone versus peripheral area of the cage / duration of the increase of spontaneous locomotion: AKB48 1 mg/kg; for total distance traveled (spontaneous locomotion): monitored 240 min; for time spent in the peripheral arena: acute i.p.: amphetamine 10 mg/kg; for spontaneous locomotion, antagonist by itself: AM 251 1 mg/kg i.p., SCH23390 0.1 mg/kg i.p., haloperidol 0.05 mg/kg i.p.; for facilitation of spontaneous locomotion after pretreatment with AM 251 / facilitation of spontaneous locomotion after coadministration of SCH23390 and haloperidol: JWH-018 0.3 mg/kg; for facilitation of spontaneous locomotion after pretreatment with AM 251: AM 251 1 mg/kg i.p. 20 min before; for facilitation of spontaneous locomotion after coadministration of SCH23390 and haloperidol: SCH23390 0.1 mg/kg i.p. + haloperidol 0.05 mg/kg i.p. 20 min before
Procedure: Drugs were administered by intraperitoneal injection in a volume of 4 μl/g. The used doses of JWH-018 (0.3 and 1 mg/kg i.p.) and AKB48 (0.3 and 1 mg/kg i.p.) were chosen based on previous studies ([6], [7], [9], [10]).
The spontaneous locomotor activity was measured by using the ANY-maze video tracking system (Ugo Basile, application version 4.99 g Beta). The mouse was placed in a square plastic cage (60 cm × 60 cm) located in a sound- and light-attenuated room and motor activity was monitored for 240 min. Four mice were monitored in parallel in each experiment. Parameters measured were distance traveled (meter), total time in the peripheral zone (seconds), total time in the central zone (seconds), and immobility time (seconds; the animal was considered immobile when 95% of his image remained in the same place for at least 2 s). Parameters were analyzed every 15 min for a maximum of 240 min and to avoid mice olfactory cues, cages were carefully cleaned with a dilute (5%) ethanol solution and washed with water between animal trials. All experiments were performed between 9:00 a.m. and 1:00 p.m.

[2] = system: spontaneous [3H]-DA efflux from mouse striatal synaptosomes; assay: Spontaneous [3H]-DA release from striatal synaptosomes; type: biochemical; conditions: amphetamine 10 µM, cocaine 100 nM, JWH-018 and AKB48 100 nM and 1 µM
Procedure: as §1
After synaptosomal preparation, 0.5 ml aliquots of the suspension were distributed on microporous filters placed at the bottom of a set of parallel superfusion chambers maintained at 37°C and perfused with aerated (95% O2/5% CO2) Kreb’s solution (0.3 ml/min). After 30 min of superfusion to equilibrate the system, 5-min fractions were collected from the 30th to the 75th min (nine samples). […] At the end of the experiment, the radioactivity of the samples and filters was determined by liquid scintillation spectrometry (LS1800 Beckman). In view of the results obtained, in a separate set of experiments, [^3H]-DA uptake was also evaluated.

[3] = system: [3H]-DA uptake in mouse striatal synaptosomes; assay: [3H]-DA uptake in striatal synaptosomes; type: biochemical; conditions: for reduction of [3H]-DA uptake: cocaine 1 µM, amphetamine 1 µM, added 5 min before 50 nM [3H]-DA, 10 min at 37°C; for effect on [3H]-DA uptake: GBR 12783 20 nM, JWH-018 and AKB48 100 nM and 1 µM
Procedure: as §1
After synaptosomal preparation, the suspension was maintained under a light and continuous oxygenation (95% O2, 5% CO2) for 20 min at 37°C. Thereafter, 0.5 ml aliquots of striatal synaptosomal suspension were prepared. […] After this period, the reaction was stopped by filtration through microporus nylon filters (0.45 µm, 13 mm; Analytical Technology, Brugherio, Italy). The filters were then washed with 1 ml ice-cold Kreb’s solution and the radioactivity accumulated on synaptosomes was extracted by eluting two times with 1 ml of warm NaOH (1 N) and then determined by liquid scintillation spectrometer. Non-specific uptake was measured by following the same procedure at 0°C.

human DAT = molecular target: T3, human DAT (Homo sapiens, UniProt Q01959); assay: [3H]-WIN 35,428 competition binding, CHO membranes transfected with human DAT
T3 construct: purchased Perkin Elmer; host or cells: CHO cells transfected with human DAT (membrane preparation)
Procedure: At the end of the incubation time, bound and free radioactivity were separated by filtering the assay mixture through Whatman GF/B glass fiber filters in a Brandel cell harvester (Brandel, Unterföhring, Germany).

[4] = molecular target: CD-1 murine CB1 receptors; conditions: ref [6]; read-out: Ki for CB1 receptors, CD-1 murine preparation; cited from earlier work
[5] = system: DA release in the nucleus accumbens (NAc) shell; assay: In vivo brain microdialysis, NAc shell extracellular DA; set-up: species or system mouse; conditions: for increase of NAc shell extracellular DA levels (maximal/peak): JWH-018 0.3 mg/kg i.p. (long-lasting), AKB48 0.3 mg/kg i.p. (peak); for NAc shell extracellular DA levels: awake freely moving mice, i.p.: amphetamine 10 mg/kg, cocaine 20 mg/kg, JWH-018 0.3 mg/kg, AKB48 0.3 mg/kg
Procedure: Male ICR (CD-1®) mice, 25–30 g (ENVIGO. Harlan Italy; S. Pietro al Natisone, Italy) were anesthetized with Isoflurane (3%; 200 ml/min) and implanted with vertical dialysis probe (1 mm dialyzing portion) prepared with AN69 fibers (Hospal Dasco, Bologna, Italy) in the NAc shell (A + 1.4, L 0.4 from bregma, V-4.8 from dura) according to the mouse brain atlas by Paxinos and Franklin ([40]). On the day following surgery, probes were perfused with Ringer’s solution (147 mM NaCl, 4 mM KCl, 2.2 mM CaCl2) at a constant rate of 1 µl/min. Dialyzate samples (10 µl) were injected into an HPLC equipped with a reverse phase column (C8 3.5 um, Waters, USA) and a coulometric detector (ESA, Coulochem II) to quantify DA. The first electrode of the detector was set at +130 mV (oxidation) and the second at −175 mV (reduction). The composition of the mobile phase was as follows: 50 mM NaH2PO4, 0.1 mM Na2-EDTA, 0.5 mM n-octyl sodium sulfate, 15% (v/v) methanol, pH 5.5. […] At the end of each experiment, animals were sacrificed and their brains removed and stored in formalin (8%) for histological examination to verify the correct placement of the microdialysis probe.

[6] = system: dopamine (DA) transmission in the NAc shell; set-up: method as in PMID 26327678; conditions: 0.25 mg/kg i.p., not at 0.125 or 0.5 mg/kg i.p.; not in NAc core and mPFC; ref [9]; cited from earlier work
[7] = system: GABAA-mediated post-synaptic currents in VTA DA neurons; set-up: method as in PMID 26686391, PMID 25232109, PMID 28373077; conditions: rat VTA DA neurons, ex vivo; ref [26], [82], [83]; cited from earlier work

T2 sequence (Q61327 whole entry): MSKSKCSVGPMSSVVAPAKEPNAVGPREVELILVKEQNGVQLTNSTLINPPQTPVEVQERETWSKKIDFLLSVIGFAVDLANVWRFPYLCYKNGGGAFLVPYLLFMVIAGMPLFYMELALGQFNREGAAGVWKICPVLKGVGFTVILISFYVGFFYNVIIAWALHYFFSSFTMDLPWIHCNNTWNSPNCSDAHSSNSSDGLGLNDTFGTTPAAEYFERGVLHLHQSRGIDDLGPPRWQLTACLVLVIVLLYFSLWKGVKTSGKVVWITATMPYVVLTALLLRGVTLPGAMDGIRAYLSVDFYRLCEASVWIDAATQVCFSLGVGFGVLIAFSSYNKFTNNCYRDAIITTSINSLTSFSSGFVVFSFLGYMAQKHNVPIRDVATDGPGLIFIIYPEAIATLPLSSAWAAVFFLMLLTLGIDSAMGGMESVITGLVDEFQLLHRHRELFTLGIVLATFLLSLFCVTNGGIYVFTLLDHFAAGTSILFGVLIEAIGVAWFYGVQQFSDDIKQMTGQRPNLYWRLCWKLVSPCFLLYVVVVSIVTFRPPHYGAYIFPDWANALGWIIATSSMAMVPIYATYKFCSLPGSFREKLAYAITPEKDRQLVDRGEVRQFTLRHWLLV
T1 sequence (Q61327 whole entry): as above
T3 sequence (Q01959 whole entry): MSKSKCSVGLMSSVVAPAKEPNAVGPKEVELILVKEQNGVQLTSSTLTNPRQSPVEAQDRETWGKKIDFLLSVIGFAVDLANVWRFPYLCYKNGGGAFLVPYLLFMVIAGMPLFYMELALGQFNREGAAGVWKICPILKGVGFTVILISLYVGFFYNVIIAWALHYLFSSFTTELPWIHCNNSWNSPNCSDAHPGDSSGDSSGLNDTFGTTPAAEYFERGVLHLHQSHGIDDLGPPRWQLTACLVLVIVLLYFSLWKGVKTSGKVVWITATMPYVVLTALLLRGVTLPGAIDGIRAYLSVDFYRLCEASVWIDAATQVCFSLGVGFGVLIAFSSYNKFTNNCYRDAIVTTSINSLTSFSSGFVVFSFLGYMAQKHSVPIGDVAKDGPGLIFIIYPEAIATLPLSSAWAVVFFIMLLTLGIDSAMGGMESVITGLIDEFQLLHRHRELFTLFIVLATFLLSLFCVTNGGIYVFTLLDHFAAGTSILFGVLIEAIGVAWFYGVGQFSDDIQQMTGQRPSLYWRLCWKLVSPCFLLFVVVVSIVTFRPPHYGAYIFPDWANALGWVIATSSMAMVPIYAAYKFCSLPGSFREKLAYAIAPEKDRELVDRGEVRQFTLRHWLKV

## CC(N)Cc1ccccc1 (stereo not drawn) [Amphetamine, reference compound]
Mouse DAT
  Ki: 622 ± 53 nM
[1]
  reduction of [123I]-FP-CIT binding in the striatum: ~ 25%
Male CD-1 mice
  immobility time: reduced the immobility time
  total distance traveled (spontaneous locomotion): induced long-lasting increases
  time spent in the peripheral arena: increase the time spent in the peripheral arena
[2]
  spontaneous [3H]-DA efflux from striatal synaptosomes: induced a significant increase
[3]
  reduction of [3H]-DA uptake: ~40%

## C(=C\c1ccccc1)/CN1CCN(CCOC(c2ccccc2)c2ccccc2)CC1 [GBR 12783, 1-(2-benzhydryloxyethyl)-4-[(E)-3-phenylprop-2-enyl]piperazine;dihydrochloride, reference compound]
Mouse DAT; 8 nM [3H]-WIN 35,428, 120 min at 4°C, mean ± SEM, read-out: Mouse striatal synaptosomes Ki
  Ki: 1.72 ± 0.11 nM
Human DAT; 8 nM [3H]-WIN 35,428, 120 min at 4°C, mean ± SEM, read-out: hDAT-CHO membranes Ki
  Ki: 1.93 ± 0.14 nM

## O=C(CCCN1CCC(O)(c2ccc(Cl)cc2)CC1)c1ccc(F)cc1 [haloperidol, 4-[4-(4-chlorophenyl)-4-hydroxypiperidin-1-yl]-1-(4-fluorophenyl)butan-1-one, reference compound]
Male CD-1 mice
  spontaneous locomotion, antagonist by itself: did not alter the spontaneous locomotion

## Cc1c(C(=O)NN2CCCCC2)nn(-c2ccc(Cl)cc2Cl)c1-c1ccc(I)cc1 [AM 251, reference compound]
Male CD-1 mice
  spontaneous locomotion, antagonist by itself: did not alter the spontaneous locomotion

## CCCCCn1nc(C(=O)NC23CC4CC(CC(C4)C2)C3)c2ccccc21 [AKB48, N-(1-adamantyl)-1-pentyl-1H-indazole-3-carboxamide]
Mouse DAT
  Ki: > 10000 nM
[4]
  Ki: 5.34 nM
[1]
  reduction of [123I]-FP-CIT binding in the striatum: ~ 42%
Male CD-1 mice
  facilitation of spontaneous locomotion after pretreatment with AM 251: prevented
  facilitation of spontaneous locomotion after coadministration of SCH23390 and haloperidol: prevented
  time in the central zone versus peripheral area of the cage: spent more time in the central zone
  immobility time: increased
  total distance traveled (spontaneous locomotion): facilitated the spontaneous locomotion only in the first 15 min
  duration of the increase of spontaneous locomotion: 15 min
[2]
  spontaneous [3H]-DA efflux from striatal synaptosomes: did not affect
[5]; AKB48 0.3 mg/kg i.p.
  time of peak extracellular DA level after administration: 40 min
[5]
  increase of NAc shell extracellular DA levels (maximal/peak): ~ 150 % of baseline values
  NAc shell extracellular DA levels: significantly increased
Human DAT
  Ki: 4590 nM
[3]
  effect on [3H]-DA uptake: ineffective

## COC(=O)[C@H]1[C@@H](OC(=O)c2ccccc2)C[C@@H]2CC[C@H]1N2C [Cocaine, reference compound]
Mouse DAT
  Ki: 193 ± 16 nM
[1]
  reduction of [123I]-FP-CIT binding in the striatum: ~ 40%
Male CD-1 mice
  immobility time: reduced the immobility time
  total distance traveled (spontaneous locomotion): induced long-lasting increases
  duration of the increase of spontaneous locomotion: 90 min
  time spent in the peripheral arena: increase the time spent in the peripheral arena
[2]
  spontaneous [3H]-DA efflux from striatal synaptosomes: induced a significant increase
[3]
  reduction of [3H]-DA uptake: ~50%

## CN1CCc2cc(Cl)c(O)cc2C(c2ccccc2)C1 (stereo not drawn) [SCH23390, 8-chloro-3-methyl-5-phenyl-1,2,4,5-tetrahydro-3-benzazepin-7-ol, reference compound]
Male CD-1 mice
  spontaneous locomotion, antagonist by itself: did not alter the spontaneous locomotion

## CCCCCn1cc(C(=O)c2cccc3ccccc23)c2ccccc21 [JWH-018, 1-pentyl-3-(1-naphthoyl)indole]
Mouse DAT
  Ki: > 10000 nM
[4]
  Ki: 5.82 nM
[1]
  reduction of [123I]-FP-CIT binding in the striatum: ~ 39%
Male CD-1 mice
  facilitation of spontaneous locomotion after pretreatment with AM 251: prevented
  facilitation of spontaneous locomotion after coadministration of SCH23390 and haloperidol: prevented
  time in the central zone versus peripheral area of the cage: spent more time in the central zone
  immobility time: reduced the immobility time
  total distance traveled (spontaneous locomotion): induced long-lasting increases
  duration of the increase of spontaneous locomotion: 90 min
[2]
  spontaneous [3H]-DA efflux from striatal synaptosomes: did not affect
[5]
  increase of NAc shell extracellular DA levels (maximal/peak): ~ 150 % of baseline values
  NAc shell extracellular DA levels: significantly increased
[6]
  dopamine (DA) transmission in the NAc shell: increases
Human DAT
  Ki: 7180 nM
[3]
  effect on [3H]-DA uptake: ineffective
[7]
  GABAA-mediated post-synaptic currents: decreases
